Source: BigSolDB 2.1

Cc1c(Br)cccc1C(=O)O
solubility (mole fraction)
Settings	in DMF	in THF	in acetonitrile	in cyclohexane	in ethanol	in ethyl acetate	in methanol
278.15 K	0.104	0.169	0.00326	–	0.0358	0.027	0.0205
283.15 K	0.126	0.183	0.00387	0.00076	0.0398	0.031	0.0261
288.15 K	0.152	0.196	0.00473	0.00092	0.0449	0.0359	0.0301
293.15 K	0.181	0.209	0.006	0.00113	0.0513	0.0413	0.0355
298.15 K	0.216	0.222	0.00665	0.00135	0.0563	0.0464	0.041
303.15 K	0.258	0.236	0.00779	0.00162	0.0631	0.0524	0.0479
308.15 K	0.305	0.248	0.00955	0.00197	0.0703	0.0601	0.0559
313.15 K	0.361	0.26	0.0113	0.00249	0.0831	0.0677	0.0641
318.15 K	0.424	0.271	0.0138	0.00312	0.0936	0.0775	0.0724
323.15 K	0.5	0.282	0.0164	0.00422	0.104	0.0879	0.0815
328.15 K	0.584	0.293	0.0194	0.00529	0.121	0.101	0.0895
